This is an account of results in patent US10759794B2, “2-phenyl-3-(piperazinomethyl)imidazo[1,2-A]pyridine derivatives as blockers of task-1 and task-2 channels, for the treatment of sleep-related breathing disorders” (BAYER PHARMA AKTIENGESELLSCHAFT, priority 2015, dated 2020).

Format in all cases: cell-based
The target of assay [1] is T1, human TASK-1 (Homo sapiens (Human), UniProt O14649). Kind of assay: Two-electrode voltage clamp analysis of human TASK-1 channels in Xenopus laevis oocytes. The following applies: Xenopus laevis oocytes, two-electrode voltage clamp, room temperature; Table 1A. As for the experimental part: (§1) B-1. In Vitro Electrophysiological Analysis of the Human TASK-1 and TASK-3 Channels Via Two-Electrode Voltage Clamp Technique in Xenopus laevis Oocytes
T1 sequence (O14649 whole entry): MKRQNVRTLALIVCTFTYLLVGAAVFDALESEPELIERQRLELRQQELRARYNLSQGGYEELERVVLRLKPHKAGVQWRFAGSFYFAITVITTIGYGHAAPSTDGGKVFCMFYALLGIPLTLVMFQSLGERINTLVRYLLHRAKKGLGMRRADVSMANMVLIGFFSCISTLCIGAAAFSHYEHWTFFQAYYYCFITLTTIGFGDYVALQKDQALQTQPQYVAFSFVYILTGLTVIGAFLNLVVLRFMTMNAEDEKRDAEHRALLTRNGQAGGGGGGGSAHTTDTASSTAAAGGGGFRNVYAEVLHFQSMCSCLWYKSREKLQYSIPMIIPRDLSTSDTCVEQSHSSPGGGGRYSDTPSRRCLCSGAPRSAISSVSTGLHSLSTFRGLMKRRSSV
(§2) Xenopus laevis oocytes were selected as described elsewhere in an exemplary manner [Decher et al., FEBS Lett. 492, 84-89 (2001)]. Subsequently, the oocytes were injected with 0.5-5 ng of a cRNA solution coding for TASK-1 or TASK-3. For the electrophysiological analysis of the channel proteins expressed in the oocytes, the two-electrode voltage clamp technique [Stühmer, Methods Enzymol. 207, 319-339 (1992)] was used. The measurements were carried out as described [Decher et al., FEBS Lett. 492, 84-89 (2001)] at room temperature (21-22° C.) using a Turbo TEC 10CD amplifier (NPI), recorded at 2 kHz and filtered with 0.4 kHz. Substance administration was performed using a gravitation-driven perfusion system. Here, the oocyte is located in a measuring chamber and exposed to the solvent stream of 10 ml/min. The level in the measuring chamber is monitored and regulated by sucking off the solution using a peristaltic pump.
A general note: Two-electrode voltage clamp holds a large cell at a set potential and records current.

For assay [2], the target named is T1, human TASK-1. Put plainly: Inhibition of recombinant TASK-1 in stably transfected CHO cells (voltage-sensitive dye, FLIPR). The following applies: depolarization induced by 40 mM potassium chloride, Table 2A. The procedure: (§3) B-2. Inhibition of Recombinant TASK-1 and TASK-3 In Vitro
(§4) The investigations on the inhibition of the recombinant TASK-1 and TASK-3 channels were carried out using stably transfected CHO cells. Here, the compounds according to the invention were tested with administration of 40 mM of potassium chloride in the presence of a voltage-sensitive dye using the method described in detail in the following references [Whiteaker et al., Validation of FLIPR membrane potential dye for high-throughput screening of potassium channel modulators, J. Biomol. Screen. 6 (5), 305-312 (2001); Molecular Devices FLIPR Application Note: Measuring membrane potential using the FLIPR® membrane potential assay kit on Fluorometric Imaging Plate Reader (FLIPR®) systems, http://www.moleculardevices.com/reagents-supplies/assay-kits/ion-channels/flipr-membrane-potential-assay-kits]. The activity of the test substances was determined as their ability to inhibit a depolarization induced in the recombinant cells by 40 mM potassium chloride. The concentration which can block half of this depolarization is referred to as IC50.

The target in assay [3] is T2, human TASK-3 (Homo sapiens (Human), UniProt Q9NPC2). Kind of assay: Two-electrode voltage clamp analysis of human TASK-3 channels in Xenopus laevis oocytes. The following applies: Xenopus laevis oocytes, two-electrode voltage clamp, room temperature; Table 1A. The procedure:
as §1, §2

In assay [4] the target is T2, human TASK-3. Put plainly: Inhibition of recombinant TASK-3 in stably transfected CHO cells (voltage-sensitive dye, FLIPR). The following applies: depolarization induced by 40 mM potassium chloride, Table 2A. The procedure: as §3, §4

T2 sequence (Q9NPC2 whole entry): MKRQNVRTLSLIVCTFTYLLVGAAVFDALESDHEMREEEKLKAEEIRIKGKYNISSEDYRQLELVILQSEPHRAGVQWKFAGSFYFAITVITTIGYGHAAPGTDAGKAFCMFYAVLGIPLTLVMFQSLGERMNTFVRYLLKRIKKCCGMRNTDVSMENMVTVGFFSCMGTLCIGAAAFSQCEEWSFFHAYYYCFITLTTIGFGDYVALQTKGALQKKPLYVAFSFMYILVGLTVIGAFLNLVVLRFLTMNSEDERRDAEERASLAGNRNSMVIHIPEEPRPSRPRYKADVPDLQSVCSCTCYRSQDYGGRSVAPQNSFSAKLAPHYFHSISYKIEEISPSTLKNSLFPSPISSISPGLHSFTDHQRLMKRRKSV

One may read the IC50 as the point on the concentration scale where inhibition reaches its midpoint. Regarding `O=C(C1CCCC1)N1CCN(Cc2c(-c3ccc(Br)cc3)nc3ccccn23)CC1` [Example 1, (4-{[2-(4-Bromophenyl)imidazo[,2-a]pyridin-3-yl]methyl}piperazin-1-yl)(cyclopentyl)methanone], the concentration for half-maximal inhibition (IC50) is 7.9 ± 0.5 nM against human TASK-1 [1], 77 nM on human TASK-1 [2], 1.04 ± 0.23 nM against human TASK-3 [3] and 17 nM at human TASK-3 [4].

In the case of `O=C(C1CCCC1)N1CCN(Cc2c(-c3ccc(Cl)cc3)nc3ccccn23)CC1` [Example 2, (4-{[2-(4-Chlorophenyl)imidazo [1,2-a]pyridin-3-yl]methyl}piperazin-1-yl)(cyclopentyl)methanone], the IC50 is 2.8 ± 1.1 nM at human TASK-1 [1], 63 nM at human TASK-1 [2], 21.8 ± 2.1 nM against human TASK-3 [3] and 20 nM on human TASK-3 [4].

With `COc1cccc(C(=O)N2CCN(Cc3c(-c4ccc(Cl)cc4)nc4ccccn34)CC2)n1` [Example 3, (4-{[2-(4-Chlorophenyl)imidazo [1,2-a]pyridin-3-yl]methyl}piperazin-1-yl)(6-methoxypyridin-2-yl)methanone], the IC50 on human TASK-1 [1] turned out to be 4.2 ± 0.6 nM; at human TASK-1 [2], 139 nM; at human TASK-3 [3] it was 27.9 ± 4 nM; on human TASK-3 [4], 28 nM.

As to `O=C(c1ccccc1F)N1CCN(Cc2c(-c3ccc(Br)cc3)nc3ccccn23)CC1` [Example 4, (4-{[2-(4-Bromophenyl)imidazo [1,2-a]pyridin-3-yl]methyl}piperazin-1-yl)(2-fluorophenyl)methanone], the IC50 on human TASK-1 [1] amounted to 9.7 ± 0.9 nM; at human TASK-1 [2] it was 172 nM; against human TASK-3 [3], 15 ± 2.1 nM; at human TASK-3 [4], 46 nM.

With `CC(C)Oc1cccc(C(=O)N2CCN(Cc3c(-c4ccc(Cl)cc4)nc4ccccn34)CC2)n1` [Example 39], the IC50 was 13.4 ± 0.9 nM against human TASK-1 [1], 440 nM on human TASK-1 [2], 6.2 ± 1.1 nM against human TASK-3 [3] and 56 nM at human TASK-3 [4].

As to `COc1cccc(C(=O)N2CCN(Cc3c(-c4ccc(Br)cc4)nc4ccccn34)CC2)n1` [Example 47], the 50% inhibitory concentration (IC50) worked out at 4.9 ± 0.4 nM against human TASK-1 [1], 140 nM on human TASK-1 [2], 2.3 ± 0.3 nM against human TASK-3 [3] and 18 nM on human TASK-3 [4].

`CC(C)c1ccc(-c2nc3ccccn3c2CN2CCN(C(=O)C3CCCC3)CC2)cc1` [Example 54]: the IC50 against human TASK-1 [1] stood at 4.3 ± 1.3 nM; at human TASK-1 [2], 479 nM; against human TASK-3 [3], 38.2 ± 1.4 nM; at human TASK-3 [4] it was 225 nM.

As to `COc1cccc(C(=O)N2CCN(Cc3c(-c4ccc(C(C)C)cc4)nc4ccccn34)CC2)n1` [Example 55], the IC50 at human TASK-1 [1] came to 45 ± 6.7 nM; at human TASK-1 [2], 490 nM; on human TASK-3 [3], 79.6 ± 10.8 nM; at human TASK-3 [4], 141 nM.
